Measurements as given in patent publication US20230150951A1, “2,5- OR 2,6-DISUBSTITUTED HYDROQUINONE DERIVATIVES WITH AT LEAST ONE CARBOXY, SULFO OR AMIDO GROUP USEFUL AS MEDICAMENTS” (OM PHARMA SA, priority 2020, published 2023).
Entries after “also recorded” stand apart in the source; their conditions may differ.

Assays:
[1] = Stability in DMSO; assay type: physicochemical
[2] = test system: acute pancreatitis murine model; assay: Caerulein-induced acute pancreatitis murine model; assay type: in vivo, Balb/c mice; set-up: Serum IL33 level / Serum TGF-B level: unit not given here
Procedure: Therapeutic efficacy of the compounds according to the present invention was assessed on an acute pancreatitis murine model. Tissue samples were obtained to allow post in-life analysis of pancreatitis parameters. Plasma samples were also obtained to assess animal exposure levels after administration of the compounds.
Animals: A total of 70 female Balb/c mice aged 8-10 weeks weighing approximately 20-25 g were used for the study (Charles River). After 7 days acclimatization, they were allocated into the different groups. […] Cages, bedding, and water were sanitized before use. Animals were provided with Corn-o-cobs enrichment bedding to provide environment enrichment and nesting material. […] The animal holding room were maintained as follows—room temperature at 20-24° C., humidity at 30-70% and a 12 h light/dark cycle used. Although animals used in this study were immuno-competent, preparation of dosing solutions and dosing/weighing of animals were carried out in a sterile biosafety cabinet.
Final formulation was in 5% DMSO, 10% Solutol, 10% PEG400, 75% 0.9% Saline and pH adjusted to 7 with 0.5M NaOH solution.
Final formulation is in 5% DMSO, 10% Solutol, 10% PEG400, 75% 0.9% Saline and pH adjusted to 7 with 0.5M NaOH solution. For per os (PO) dosing IVc-059a is formulated in water. Drug solutions were formulated on the day of dosing.
The purposes of this study were to assess efficacy compounds in an acute pancreatitis model (14 days), generate tissue samples to allow post in-life analysis of pancreatitis parameters and generate four plasma samples to assess animal exposure levels after first and last injection obtained from blood samples taken 1 h and 24 h after first and last injection.
Study Design: On the first study day animals were randomly be assigned to treatment groups, ensuring an equal spread of bodyweight. Mice (except negative control group) were treated with test compounds were given 5 minutes prior to caerulein dosing, followed by injection with caerulein at […] via intraperitoneal route (IP) daily during the study.
Treatment of test compounds were given 5 minutes prior to caerulein dosing.
Sampling and post in-life analyses: at times indicated above a whole blood sample (60 μl) were taken from the lateral tail vein into tubes coated with K2-EDTA. Plasma samples were prepared and stored frozen at −20° C. Plasma samples were sent to client bioanalysis provider Eurofins (FR) for quantification of compound.
Terminal Sampling: Prior to termination animals were weighed. Terminal study animals were culled via CO2 inhalation. A terminal blood sample was taken via cardiac puncture and plasma prepared. Lipase and Amylase activities were measured via ELISA using commercially available ELISA kits. Remaining plasma was stored for future cytokine analyses. Pancreas tissue was resected and weighed, and a section ([…]) snap frozen and analysed for quantification of compound in pancreas sample. A section ([…]) was processed for measurement of MPO activity, IL-33 and TGF-B levels via ELISA. The remainder was fixed in formalin and embedded in paraffin wax. H&E staining was carried out and section assessed using Schmidts standard scoring system, examining: edema, inflammatory infiltration, parenchymal necrosis, haemorrhage. Massons' Trichrome staining was carried out and area covered by fibrotic tissue quantified digitally using QuPath software. Terminal serum samples was used to assess blood chemistry using an IdeXX CHEM15 and LYTE4 clip (4 animals per treatment group).
Histopathology assessment of pancreatic injury based on 4 criteria: Oedema, Inflammatory infiltration, Parenchymal necrosis, Haemorrhage and scored as described below.
Schmidt score is the evaluation of the efficacy of the compounds based on the four histopathology criteria as described in the table below.

[3] = test system: bleomycin induced pulmonary fibrosis; assay: Bleomycin induced pulmonary fibrosis, 21 days; assay type: in vivo, mice; conditions: day 21; pirfenidone 100 mg/kg, IVc-059a 15 mg/kg
Procedure: A total of 40 male Balb/c mice aged 8-10 weeks were used for the study.
Mice were anesthetized using an IP injection of xylazine and ketamine. Once an appropriate plane of anaesthesia was achieved, animals had 1.0 U/kg bleomycin sulphate instilled via intratracheal route. The total volume of liquid was 50 μL.
Dosing of IV and positive control (pirfenidone) started 24 hours after bleomycin instillation.
Drug solution was formulated immediately prior to dosing. For a dose of 15 mg/kg (enough for 12, 30 g mice) 4.5 mg of compound was weighed out. 75 μl (5%) DMSO added and mixed until drug is in solution. 150 μl (10%) solutol added and vortexed gently, 150 μl (10%) PEG400 added and vortexed gently. 1000 μl PBS (pH7) was added and matrix was measured to ensure pH 7.0 was maintained. Remaining PBS (to a total of 1500 μl) was added. Compound remained in solution. […]
Ashcroft score: Lungs from each animal were FFPE, sectioned and stained with H&E according to an in-house protocol. […] Each lung was scored using the Ashcroft grading system to measure degree of inflammation/fibrosis as per Hubner et al., 2008. […]
An entire lung from each animal was formalin fixed and stored in 70% ethanol. […] Percent area covered by trichrome staining was quantified using Qupath and ImageJ software.

[4] = cited from earlier work
[5] = 1st experiment, caerulein induced, 15 mg/kg IV, Ib-010a and IVc-059a 150 mg/kg PO, Pirfenidone 40 mg/kg IV
[6] = 1st experiment, terminal pancreatic tissue, 15 mg/kg IV, Ib-010a and IVc-059a 150 mg/kg PO, Pirfenidone 40 mg/kg IV
[7] = 1st experiment, terminal serum, 15 mg/kg IV, Ib-010a and IVc-059a 150 mg/kg PO, Pirfenidone 40 mg/kg IV
[8] = second experiment, IV, 15 mg/kg, Pirfenidone 100 mg/kg

For `O=C(O)c1cc(O)c(-c2nc3cccc(C(=O)O)c3[nH]2)cc1O` [Id-030a, 2-(4-Carboxy-2,5-dihydroxyphenyl)-1H-benzo[d]imidazole-4-carboxylic acid], the “Stability in DMSO (in words)” value [1] was “unstable in DMSO”.
With `Cc1ccc(=O)n(-c2ccccc2)c1` [pirfenidone, reference compound] the “Acinar cell necrosis (group mean score)” value [2, 5] was 0.8, the “Haemorrhage (group mean score)” value [2, 5] was 0.4 and the “Interstitial oedema (group mean score)” value [2, 5] was 1.0. The “Leukocyte infiltration (group mean score)” value [2, 5] was 2.0, the “Mean terminal BW (% of initial)” value [2, 5] was 97.6 % of initial and the “Mean terminal pancreas weight” value [2, 5] was 0.136 g. The “Pancreas histopathology observations (H&E)” value [2, 5] was “Mild oedema observed; also recorded: Mild haemorrhage observed; also recorded: Mild acinar cell necrosis observed; also recorded: Leukocyte infiltration observed; also recorded: Normal islet morphology observed in areas”, the “Schmidt Score (H&E)” value ([2]; 1st experiment, caerulein induced, 15 mg/kg IV, Ib-010a and IVc-059a 150 mg/kg PO, Pirfenidone 40 mg/kg IV, induced + vehicle = 10, non-induced = 0) was 4.1 and the “Pancreas IL33 level” value [2, 6] was 78 ± 23. For the same compound, the “Pancreas MPO activity” value [2, 6] was 1.26, the “Pancreas TGF-B level” value [2, 6] was 289 ± 170 and the “Serum IL33 level” value [2, 7] was 39.16. The “Serum TGF-B level” value [2, 7] was 5.5, the Serum amylase level [2, 7] was 37.71 and the Serum lipase level [2, 7] was 7.65. For the same compound, the Amylase [2, 8] was 45.171 mU/mL, the IL-33 [2, 8] was 226 ± 151 ng/mL and the Lipase [2, 8] was 4.541 mU/mL. For the same compound, the MPO [2, 8] was 1.68 ± 0.44 U/mg, the “Schmidt Score” value [2, 8] was 8 ± 1 and the TGF-B [2, 8] was 578 ± 230 ng/mL. For the same compound, the “Trichome staining (Fibrosis % area)” value [2, 8] was 1.277 ± 0.888 % area, the “Lipase activity in serum” value ([2]; second experiment, pirfenidone 100 mg/kg, compounds 15 mg/k, vs vehicle treated animals) was “significantly lower than that in vehicle treated animals” and the “MPO activity in pancreatic tissue” value ([2]; second experiment, vs induced vehicle treated controls) was “significantly lower than induced vehicle treated controls”. The “Onset of fibrosis in mouse lung (Ashcroft score)” value [3] was “reduced the onset of fibrosis in mouse lung”.
For `CNC(=O)c1cccc(C(=O)NC)c1O` [bis (N-methyl)amide of 2-hydroxyisophthalic acid], the pKa of phenol [4] is given as 6.81.
